ChEMBL document CHEMBL4823315 (Bioorg Med Chem Lett, 2021)
Values after ≈ are worked out from the molar mass of the structure shown.

Key:
[1] = In vivo Inhibition of Akt/p70S6K in mouse xenografted with human MDA-MB-436 cells assessed as reduction in S6 phosphorylation in tumor at 75 mg/kg, po measured after 24 hrs; type: functional; conditions: MDA-MB-436, po
[2] = Thermodynamic solubility of the compound at pH 1.2; type: physicochemical; conditions: buffer, read-out: Therm_solubility
[3] = Clearance in cynomolgus monkey at 0.5 mg/kg, po or 0.2 mg/kg, iv; type: ADME, organism-based, Macaca fascicularis; conditions: in vivo
[4] = Clearance in CD-1 mouse at 5 mg/kg, po or 5 mg/kg, iv; type: ADME, organism-based; conditions: in vivo
[5] = In vivo Inhibition of Akt/p70S6K in mouse xenografted with human MDA-MB-436 cells assessed as reduction in S6 phosphorylation in tumor at 25 to 200 mg/kg, po measured after 4 to 8 hrs; type: functional; conditions: dose 25-200 mg/kg, time 4-8 hrs
[6] = Intrinsic clearance in human liver microsomes; type: ADME, Microsome; conditions: read-out: CLH
[7] = AUC in Sprague-Dawley rat at 5 mg/kg, po; type: ADME, organism-based; design: dose 5 mg/kg; conditions: in vivo
[8] = Volume of distribution in CD-1 mouse at 5 mg/kg, po or 5 […], iv; type: ADME, organism-based; conditions: in vivo
[9] = Toxicity in po dosed mouse xenografted with human MDA-MB-436 cells administered daily; type: organism-based; conditions: in vivo
[10] = Apparent permeability across apical to basal side in human Caco-2 cells; type: ADME, cell-based
[11] = target: Serine/threonine-protein kinase AKT (Homo sapiens, UniProt P31751+Q9Y243+P31749); experiment: Inhibition of Akt (unknown origin); type: protein assay
[12] = Clearance in Sprague-Dawley rat at 5 mg/kg, po or 5 mg/kg, iv; type: ADME, organism-based; conditions: in vivo
Cytochrome P450 2C19 = Cytochrome P450 2C19 (Homo sapiens, UniProt P33261); experiment: Inhibition of CYP2C19 (unknown origin); type: ADME
Cytochrome P450 2C19, sequence (P33261 whole entry): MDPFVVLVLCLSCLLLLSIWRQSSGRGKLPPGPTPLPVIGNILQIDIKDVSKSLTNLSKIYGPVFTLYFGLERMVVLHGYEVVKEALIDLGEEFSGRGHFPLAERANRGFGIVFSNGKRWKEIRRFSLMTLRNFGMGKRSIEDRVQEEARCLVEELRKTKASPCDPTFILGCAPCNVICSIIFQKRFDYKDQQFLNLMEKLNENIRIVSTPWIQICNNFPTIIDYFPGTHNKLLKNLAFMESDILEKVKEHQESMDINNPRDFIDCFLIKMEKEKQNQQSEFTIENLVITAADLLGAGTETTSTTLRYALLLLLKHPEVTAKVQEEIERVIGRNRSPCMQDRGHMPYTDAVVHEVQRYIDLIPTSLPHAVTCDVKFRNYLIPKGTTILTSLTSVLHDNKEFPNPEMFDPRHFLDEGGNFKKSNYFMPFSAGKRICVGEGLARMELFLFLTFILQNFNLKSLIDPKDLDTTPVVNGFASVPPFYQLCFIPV

[13] = Cmax in cynomolgus monkey at 0.5 mg/kg, po; type: ADME, organism-based, Macaca fascicularis; design: route oral, dose 0.5 mg/kg; conditions: in vivo
[14] = AUC in cynomolgus monkey at 0.5 mg/kg, po; type: ADME, organism-based, Macaca fascicularis; design: dose 0.5 mg/kg; conditions: in vivo
Cytochrome P450 2D6 = Cytochrome P450 2D6 (Homo sapiens, UniProt P10635); experiment: Inhibition of CYP2D6 (unknown origin); type: ADME
Cytochrome P450 2D6, sequence (P10635 whole entry): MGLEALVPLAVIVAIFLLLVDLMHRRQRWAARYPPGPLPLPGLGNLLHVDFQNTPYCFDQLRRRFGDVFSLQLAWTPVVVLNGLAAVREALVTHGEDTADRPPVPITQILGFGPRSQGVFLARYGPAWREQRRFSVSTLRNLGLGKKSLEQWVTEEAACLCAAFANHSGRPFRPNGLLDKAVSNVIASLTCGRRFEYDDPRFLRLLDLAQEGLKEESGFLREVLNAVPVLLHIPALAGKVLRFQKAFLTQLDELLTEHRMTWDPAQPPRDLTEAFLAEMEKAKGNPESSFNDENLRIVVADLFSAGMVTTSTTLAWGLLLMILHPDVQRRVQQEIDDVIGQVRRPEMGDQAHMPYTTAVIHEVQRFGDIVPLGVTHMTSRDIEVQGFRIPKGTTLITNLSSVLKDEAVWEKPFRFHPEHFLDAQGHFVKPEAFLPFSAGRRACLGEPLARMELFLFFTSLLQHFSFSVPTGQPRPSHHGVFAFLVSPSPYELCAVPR

Cytochrome P450 2B6 = target: T1, Cytochrome P450 2B6 (Homo sapiens, UniProt P20813); experiment: Inhibition of CYP2B6 (unknown origin); type: ADME
T1 sequence (P20813 whole entry): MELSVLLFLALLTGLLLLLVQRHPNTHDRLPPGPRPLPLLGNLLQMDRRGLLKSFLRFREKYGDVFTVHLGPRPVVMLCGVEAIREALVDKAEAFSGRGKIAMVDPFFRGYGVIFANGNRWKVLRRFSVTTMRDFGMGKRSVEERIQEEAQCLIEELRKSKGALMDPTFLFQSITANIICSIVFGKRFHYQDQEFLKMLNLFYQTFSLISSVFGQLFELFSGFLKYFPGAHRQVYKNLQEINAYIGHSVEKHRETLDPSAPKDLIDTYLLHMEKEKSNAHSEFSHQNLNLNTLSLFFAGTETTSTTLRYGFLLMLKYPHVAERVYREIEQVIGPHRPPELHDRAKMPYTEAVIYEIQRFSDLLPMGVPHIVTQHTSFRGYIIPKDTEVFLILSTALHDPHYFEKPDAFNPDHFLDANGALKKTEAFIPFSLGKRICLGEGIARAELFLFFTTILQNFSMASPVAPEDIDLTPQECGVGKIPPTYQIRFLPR

[15] = Cmax in Sprague-Dawley rat at 5 mg/kg, po; type: ADME, organism-based; design: route oral, dose 5 mg/kg; conditions: in vivo
[16] = Oral bioavailability in Beagle dog at 0.5 mg/kg; type: ADME, organism-based, Canis lupus familiaris; conditions: in vivo
[17] = Efflux ratio of apparent permeability in human Caco-2 cells; type: ADME, cell-based
[18] = Half life in Beagle dog at 0.5 mg/kg, po or 0.2 mg/kg, iv; type: ADME, organism-based, Canis lupus familiaris; conditions: in vivo
[19] = Half life in Sprague-Dawley rat at 5 mg/kg, po or 5 mg/kg, iv; type: ADME, organism-based; conditions: in vivo
[20] = Intrinsic clearance in mouse liver microsomes; type: ADME, Microsome; conditions: read-out: CLH
[21] = Cmax in CD-1 mouse at 5 mg/kg, po; type: ADME, organism-based; design: route oral, dose 5 mg/kg; conditions: in vivo
Cytochrome P450 2C8 = target: T2, Cytochrome P450 2C8 (Homo sapiens, UniProt P10632); experiment: Inhibition of CYP2C8 (unknown origin); type: ADME
T2 sequence (P10632 whole entry): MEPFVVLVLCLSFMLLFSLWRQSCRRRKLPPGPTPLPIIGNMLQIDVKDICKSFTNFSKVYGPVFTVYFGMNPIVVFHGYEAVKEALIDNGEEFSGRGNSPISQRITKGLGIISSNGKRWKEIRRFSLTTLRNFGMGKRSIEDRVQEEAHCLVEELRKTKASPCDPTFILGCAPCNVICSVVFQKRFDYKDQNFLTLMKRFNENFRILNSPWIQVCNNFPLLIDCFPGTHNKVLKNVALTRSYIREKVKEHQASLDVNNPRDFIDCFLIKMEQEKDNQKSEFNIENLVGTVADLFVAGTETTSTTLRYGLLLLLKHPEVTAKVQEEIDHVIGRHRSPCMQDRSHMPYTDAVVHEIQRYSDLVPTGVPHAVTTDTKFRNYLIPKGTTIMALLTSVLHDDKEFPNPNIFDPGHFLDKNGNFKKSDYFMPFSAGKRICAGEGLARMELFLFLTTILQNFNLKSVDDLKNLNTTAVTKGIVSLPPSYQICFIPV

MDA-MB-436 = experiment: Antitumor activity against human MDA-MB-436 cells xenografted in mouse assessed as tumor growth inhibition at 200 mg/kg, po qd and measured for 28 days; type: functional; conditions: MDA-MB-436, po, 672 h, time 28 day, read-out: TGI
[22] = Protein binding in mouse plasma assessed as unbound fraction; type: ADME, cell-free
[23] = Half life in cynomolgus monkey at 0.5 mg/kg, po or 0.2 mg/kg, iv; type: ADME, organism-based, Macaca fascicularis; conditions: in vivo
[24] = Toxicity in mouse xenografted with human MDA-MB-436 cells assessed as loss of body weight at 200 mg/kg, po administered qd measured after 15 days; type: organism-based; conditions: in vivo, 360 h, time 15 day
[25] = AUC in CD-1 mouse at 5 mg/kg, iv; type: ADME, organism-based; design: dose 5 mg/kg; conditions: in vivo

## NC(=O)c1c(N)ncnc1N1CCC(c2nc(-c3ccc(F)c(C(F)(F)F)c3)cn2CCN2CCC2)CC1
[1]
  inhibition in vivo at 75 mg/kg: 87%
[2]
  solubility thermodynamic: 2960 µg/mL (≈ 5.56 mM)
[3]
  clearance: 42.8 mL/min/kg
[4]
  clearance: 25 mL/min/kg
[5]
  inhibition (INH): >95%
[6]
  microsomal CLint: 46 µL/min/mg
[7]
  AUC: 43.4 ng·h/mL
[8]
  Vd: 19.3 L/kg
[9]
  MTD: ≤ 200 mg/kg
[10]
  Papp A→B: 5.3 ×10⁻⁶ cm/s
[11]
  IC50: 0.016 µM
[12]
  clearance: 312 mL/min/kg
Cytochrome P450 2C19
  IC50: > 20 µM
[13]
  Cmax: 9.7 ng/mL
[14]
  AUC: 82 ng·h/mL
Cytochrome P450 2D6
  IC50: > 20 µM
Cytochrome P450 2B6
  IC50: > 20 µM
[15]
  Cmax: 13 ng/mL
[16]
  bioavailability: 65%
[17]
  efflux ratio: 7.9
[18]
  half-life: 19 h
[19]
  half-life: 1.5 h
[20]
  microsomal CLint: 11 µL/min/mg
[21]
  Cmax: 57 ng/mL
Cytochrome P450 2C8
  IC50: > 20 µM
MDA-MB-436
  inhibition in vivo at 200 mg/kg: 98%
[22]
  fraction unbound: 0.21
[23]
  half-life: 4 h
[24]
  Activity: > 5%
[25]
  AUC: 662 ng·h/mL
